The test deals with carnations. The test can be described thus: Preservation of cut carnations in vases of distilled water with one additive each. The class given is in vivo. Particulars: one cut carnation per vase, one teaspoon of additive in 1 cup distilled water; for order in which the flowers collapsed: collapsed = flower fell to a side of the stem. The procedure:
The materials in the experiment used included seven vases; one cutting knife; one teaspoon each of lemon-lime soda, sugar, aspirin, house bleach, vitamins, a sports drink, including citric acid, potassium, sodium, sugar and water, eight cups of warm distilled water, and seven fresh carnations Each of the seven vases were filled with 1 cup of distilled water. One teaspoon of each additive was added to its own separate vase of distilled water. One vase only contained distilled water because it was used as the control group. Each carnation was cut on the end at a slant. […] Referring to FIG. 3, the conditions of each flower were recorded after every 24-hour period on a scale from “1” to “10.” Scores between “7” to “10” are “good,” scores between “4” to “6” are “fair,” and scores between “0” to “3” are poor. […] A flower was “collapsed” when it decayed to a point where the flower 14 fell to a side of the stem 18. Aspirin is recommended to preserve flowers by many florists because it lowers the PH level of water, making it more acidic. Acid helps water move more easily up the tubes in a flower's stem 18. However, some florists argue that aspirin can damage flowers, which this experiment supported. Bleach was used in the experiment because bleach kills bacteria, which is harmful to flowers. However, the bleach and water solution only preserved its flower for ten out of nineteen days. […] The carnation with vitamins and water solution may have collapsed because of bacteria growth that developed in the vase. The control group (water only) preserved its carnation for an average length of thirteen days. […] All three solutions contained sugar, a vital substance needed by plants to carry out photosynthesis. The flower with the lemon lime soda lasted for sixteen days, and the flower with sugar lasted for eighteen days. The sports drink and water was the solution that preserved its flower the longest, approximately twenty-nine days.

Consider `CC(=O)Oc1ccccc1C(=O)O` [aspirin], for which the “order in which the flowers collapsed” value is recorded as “first flowers to collapse”.
Regarding sugar, the “order in which the flowers collapsed” value was “last three flowers to remain fresh”. The “time the flower was preserved (until collapse)” value (condition recorded every 24 hours) is “eighteen”.
